Key:
[1] = Partition coefficient determination (log D); type: physicochemical
Protocol: An ideal Aβ imaging probe would combine a high binding affinity to Aβ plaques and excellent pharmacokinetics with high initial brain uptake and rapid washout from normal brain regions. Thus, the partition coefficients of these four radiolabeled ligands were determined to estimate their ability to penetrate the BBB.

[2] = In vivo metabolism (biostability), HPLC analysis of organ samples; conditions: ICR mice, i.v.
Protocol: All four radioactive ligands degraded to two corresponding polar radioactive products with shorter retention times. […] The good in vivo biostability of these compounds enhances their potential for SPECT mapping of the brain. […] In the plasma, all four ligands were rapidly converted to polar metabolites, leaving only approximately 10% of the parent tracers at 60 min. […] In contrast, the breakdown of [^125I]7a and [^125I]12a was so rapid that almost negligible amounts of parent tracers remained at 30 min (8.8% and 6.3%, respectively). The polar and hydrophilic metabolites metabolized by the liver could be absorbed by the intestine and excreted through the urine, in accordance with the biodistribution results. The rapid metabolism in the liver may be another reason for the faster clearance of these compounds from the normal brain. For structurally identical molecules labeled with radioactive isotopes at different positions, the in vivo metabolic pathways were expected to be the same. However, as only radioactive products can be detected with PET/SPECT scanners, different pharmacokinetics of the radioactive components could lead to different imaging results. […] The dual radiolabeled identical benzyloxybenzene derivatives in this study were expected to undergo the same metabolic reactions, generating different radioactive metabolites. Differences in the biochemical characteristics of the radiometabolites including absorption, distribution, metabolism and excretion are responsible for the discrepancy in the pharmacokinetics of the radioactivity.

Aβ plaques = Aβ plaques (Homo sapiens, UniProt P05067); experiment: In vitro autoradiography on AD human brain sections; type: binding
Aβ plaques, sequence (P05067 672-711 limits assumed): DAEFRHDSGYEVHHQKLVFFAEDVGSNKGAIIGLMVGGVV
From the text: Figure 5 In vitro autoradiography of [^125I]7a (a–d), [^18F]7a (e–h), [^125I]12a (i–l) and [^18F]12a (m–p).

| Compound | logD [1] | Percentage of Parent tracer, Brain ([2]; post-injection time 2 min) | Percentage of Parent tracer, Feces ([2]; post-injection time 2 min) | Percentage of Parent tracer, Liver ([2]; post-injection time 2 min) | Percentage of Parent tracer, Plasma ([2]; post-injection time 2 min) | Percentage of Parent tracer, Urine ([2]; post-injection time 2 min) | Percentage of Parent tracer, Brain ([2]; post-injection time 10 min) | Percentage of Parent tracer, Feces ([2]; post-injection time 10 min) | Percentage of Parent tracer, Liver ([2]; post-injection time 10 min) | Percentage of Parent tracer, Plasma ([2]; post-injection time 10 min) | Percentage of Parent tracer, Urine ([2]; post-injection time 10 min) | Percentage of Parent tracer, Brain ([2]; post-injection time 30 min) | Percentage of Parent tracer, Feces ([2]; post-injection time 30 min) | Percentage of Parent tracer, Liver ([2]; post-injection time 30 min) | Percentage of Parent tracer, Plasma ([2]; post-injection time 30 min) | Percentage of Parent tracer, Urine ([2]; post-injection time 30 min) | Percentage of Parent tracer, Brain ([2]; post-injection time 60 min) | Percentage of Parent tracer, Feces ([2]; post-injection time 60 min) | Percentage of Parent tracer, Liver ([2]; post-injection time 60 min) | Percentage of Parent tracer, Plasma ([2]; post-injection time 60 min) | other results |
| --- | --- | --- | --- | --- | --- | --- | --- | --- | --- | --- | --- | --- | --- | --- | --- | --- | --- | --- | --- | --- | --- |
| [18F]CCOc1ccc(OCc2ccc(I)cc2)cc1 [[^18F]7a] | 3.88 ± 0.17 | 84.7% | 53.6% | 79.5% | 43.1% | 0.0% | 69.8% | 18.8% | 62.6% | 21.6% | 0.0% | 68.9% | 10.5% | 48.7% | 21.8% | 0.0% | 34.0% | 7.3% | 23.4% | 7.2% | Percentage of Parent tracer, Urine ([2]; post-injection time 60 min): 0.0%; in vitro autoradiography, plaque labeling (Aβ plaques): specifically label Aβ deposits |
| [18F]CCOc1ccc(COc2ccc(I)cc2)cc1 [[^18F]12a] | 3.84 ± 0.07 | 87.9% | 46.7% | 91.1% | 73.7% | 0.0% | 65.7% | 20.9% | 85.3% | 40.4% | 0.0% | 49.2% | 16.8% | 82.2% | 34.1% | 0.0% | 29.8% | 17.4% | 21.7% | 13.9% | Percentage of Parent tracer, Urine ([2]; post-injection time 60 min): 0.0%; in vitro autoradiography, plaque labeling (Aβ plaques): specifically label Aβ deposits |
| FCCOc1ccc(OCc2ccc([125I])cc2)cc1 [[^125I]7a] | 3.96 ± 0.22 | 95.9% | 22.9% | 35.2% | 85.2% | 0.0% | 86.0% | 58.8% | 13.5% | 41.3% | 2.6% | 79.4% | 2.0% | 8.8% | 22.1% | 0.0% | 72.1% | 0.0% | 3.3% | 12.3% | Percentage of Parent tracer, Urine ([2]; post-injection time 60 min): 0.0%; in vitro autoradiography, plaque labeling (Aβ plaques): specifically label Aβ deposits |

Source: paper PMC4501006, “Preliminary Characterization and In Vivo Studies of Structurally Identical ^18F- and ^125I-Labeled Benzyloxybenzenes for PET/SPECT Imaging of β-Amyloid Plaques” (Scientific Reports, 2015)
